A melting point compilation (Tetko et al.; mined from patent text by program, amines drawn as free bases though some values may be those of a salt)

Structure (SMILES)	melting point [°C]
C[C@@H](n1ncn(-c2ccc(-n3ccn(-c4ccc(OCC(F)(F)C(F)F)cc4)c3=O)cc2)c1=O)[C@](O)(Cn1cncn1)c1ccc(F)cc1F	181 to 183
Cn1c(=O)n(-c2cc(N)c(Cl)cc2F)c(=S)n1C	208
CSc1c(Cl)ccc(C(=O)O)c1SC	130 to 131
CC(C)(C#N)c1ccc(C(=O)Nc2cn3cc(-n4ccnc4)ccc3n2)cc1	241 to 244
CCN(CC)c1ccc(-c2nc3ccc(OC(F)(F)F)cc3[nH]2)cc1	168 to 173
Cc1cnc2c(C#N)cnn2c1-c1ccc(Cl)cc1	154 to 157
COC(=O)C(=O)NCCSC(c1ccccc1)c1ccccc1	88 to 89
O=C(NO)c1ccc(CNC(=O)c2[nH]c(-c3ccoc3)cc2-c2ccc(O)cc2)cc1	159 to 160
CCCn1nc2c(N)nc3ccccc3c2c1CCc1ccccc1	175 to 176
Nc1nc(Nc2cccnc2)sc1C(=O)c1ccc(Cl)cc1Cl	209 to 210
N#CN=C1CCCN1C1=CC(CF)(CF)Oc2ccc(C(F)(F)C(F)(F)F)cc21	207 to 210
NCCc1cccc(Cn2ccc(OCc3ccc(F)cc3F)c(Br)c2=O)c1	70 to 74
CCOC(=O)/C=C/c1cn(-c2ccc(C(F)(F)F)cn2)nc1C(C)CC (stereo unspecified)	75 to 76
CC=C(C#N)c1cccnc1	46 to 47
Cn1ncc2c1-c1cc(Cl)ccc1OC2	80.5 to 81
Cc1oc2c(OC(C)C#N)cccc2c1C (stereo unspecified)	53 to 55
C1=C(c2ccccc2)CCN(CCCCc2cnc3ccccc3c2)C1	92.8 to 93.9
CCc1nc2c(n1Cc1ccc(-c3ccccc3)cc1)C(=O)N(C)CN2c1ccc(Cl)cc1Cl	216 to 217
CCCCCCCCN1C(=O)C2C3CCC(O3)C2C1=O (stereo unspecified)	36 to 37
OC1CCNc2nc(Br)ccc21 (stereo unspecified)	130 to 131
CC(=O)N(C(C)=O)c1c(I)c(C(=O)Cl)c(I)c(N(C(C)=O)C(C)=O)c1I	231 to 232
CCOC(=O)CCN(C)CC(C(=O)OC)c1cc(OC)c(CC)c(OC)c1 (stereo unspecified)	74 to 75

Structure (SMILES)	melting point [°C]
CS(=O)(=O)c1c(N)nc(N)nc1Cl	256 to 258
C#CCOC(=O)c1cc(-n2c(=O)c3c(n(C)c2=O)CCC3)c(F)cc1Cl	193 to 195
CC(C)(C)CNc1nc(Cl)cc(NC(C)(C)C)n1	115 to 119
COCCCn1nnnc1-c1cc(-c2ccccc2C(F)(F)F)c(O)cc1O	207 to 210
Cc1cccc(N(C)C(=S)Oc2ccc(Cl)c(C)c2)n1	134 to 136
CC(C)CNc1cc2nnnn2c2cnccc12	220 to 221
O=C(O)c1ccc(-c2nc(-c3ccc(F)cc3)c(-c3ccncc3)[nH]2)cc1	289 to 290
CCc1cc2c(O)c(C(=O)O)cnc2s1	238 to 239
CC(C)(CI)c1cc(Cl)nnc1Cl	104 to 106
NS(=O)(=O)c1ccc(-c2cc(F)c(F)cc2-c2ccc(F)c(Cl)c2)cc1	162 to 163
CCCCCCCCOc1ccc(-c2ccc(-c3ccc4c(c3)C(CC)(CC)c3cc(-c5ccc(-c6ccc(OCCCCCCCC)cc6)cc5)ccc3-4)cc2)cc1	146
COc1cc(C(=O)c2c[nH]c(-c3c[nH]c4ccccc34)n2)cc(OC)c1OC	208 to 210
C#CCn1ccc(C(=O)OC)c1C=O	76
CN1Cc2c(C#C[Si](C)(C)C)ncn2-c2ccc(F)cc2C1=O	184 to 185
CCc1c(C(C)(C)C)cc(C(C)(C)C)c(O)c1C(=O)Nc1ccc(S(=O)(=O)C(F)(F)F)cc1Cl	157 to 158
CCCCCC(=O)CCc1ccc(CCCCCCCC(=O)O)o1	64 to 65
O=[N+]([O-])c1ccc(-c2ccc(-c3ccc([N+](=O)[O-])cc3OCc3ccccc3)o2)c(OCc2ccccc2)c1	233 to 237
CCCCc1ccc(C#Cc2ccc(C=O)cc2)cc1	76 to 78
CCCCCCC(=N)NC(=S)Nc1ccc(SC)cc1	100 to 101
O=Cc1csc(NC2CC2)n1	124 to 127
CCCCn1c(=O)c2[nH]c(N3CCCCC3)nc2n(CCCC)c1=O	221

Results, then the compound that gave them:

melting point [°C]	Structure (SMILES)
63 to 71	CC(C)[C@H](NC(=O)OCc1ccccc1)C(=O)N[C@@H](C(C)C)[C@@H](O)c1c(-c2ccccc2)c1=O
153 to 155	CCCN(CCC)CC1CCCCN1CCNC(=O)N1c2ccccc2NC(=O)c2c1ccn2C (stereo unspecified)
> 280	CN1C(C)(C)CC(NC(=O)c2ccc(-c3nc4cc(Cl)c(Cl)cc4[nH]3)cc2)CC1(C)C
133 to 141	CC(=O)C1CCC2C3CCC4CC(O)(Cc5ccccc5)CCC4(C)C3CCC12C (stereo unspecified)
189 to 190	CCCCc1nc2c(N)nc3ccccc3c2n1CCCNC(=O)c1ccccc1
170 to 172	COc1ccc(Cl)cc1NC(=O)[C@H]1[C@H](c2ccc(Br)cc2)C1(C)C (relative stereo)
160 to 165	CCOC(=O)c1cn(CCc2ccc(OC)cc2)c2cc(C3CC3)nn2c1=O
172 to 174	COc1cc(CC(=O)NCC(=O)N(CCC(=O)O)Cc2ccc(OC)c(OC)c2)ccc1NC(=O)Nc1ccccc1C
119 to 120	CC(C)(CCCCCCCc1c(-c2ccccc2)nc(-c2ccccc2)n1-c1ccccc1)C(=O)O
150 to 152	CC(C)(C)OC(=O)NCc1ccc2c(Br)c(O)ccc2c1
269 to 270	COC(=O)c1ccc(Oc2ccc3c(c2)CCN(C2CCN(C4CCC4)CC2)C3=O)cc1
178 to 180	O=C(Nc1ccc(-n2nc(C(F)(F)F)cc2C(F)(F)F)cc1)C1CCCCC1
220 to 221	CN1CCN(c2ccc(N/C=C3\C(=O)NC(=O)c4ccc(I)cc43)cc2)CC1
136 to 137	COC(=O)CC[C@H]1C(=O)N(c2ccc(F)cc2)[C@@H]1c1ccc(O)cc1
114 to 116	COc1c(C)c(N2CCN(c3ccc(F)cc3)CC2)c(C)c2c1OC(C)C2 (stereo unspecified)
152 to 154	CC(=O)NC[C@H]1CN(c2ccc(N3CCC4(CC3)CO4)c(F)c2)C(=O)O1
140	CCc1cccc(C)c1CNc1cc(C(=O)OC)cn2nc(C)nc12
250	O=C(O)c1cn(Cc2ccccc2)c2cc(Cl)c(F)cc2c1=O
233 to 235	Cc1ccccc1C(=O)Nc1ccc(C(=O)N2CCCC(CN)c3ccccc32)cc1 (stereo unspecified)
331 to 332	Cc1cnc2[nH]cc(/C=C3\N=C(N4CCN(c5ccccc5)CC4)NC3=O)c2c1
227 to 228	COc1cc(C=CC=C2OC(=O)NC2=O)ccc1OCc1coc(-c2ccccc2)n1
147 to 148	CCOc1ccc(C2=NN(C3CCCCC3)C(=O)[C@H]3CC=CC[C@@H]23)cc1OCC (relative stereo)
253 to 255	CCNC(=O)c1cnn(C)c1C(=O)Nc1ccn2nc(-c3ccccc3)nc2c1
84 to 87	CC(=O)n1c(C)c(-c2ccc(F)cc2)c2cccnc21
168 to 170	N#Cc1ccc2cccc(N3CCN(CCCCOc4ccc5c(n4)NC(=O)NCC5)CC3)c2c1
195	CC1=C(C(=O)OC(C)C)C(c2cccc([N+](=O)[O-])c2)C(C(=O)O)=NN1 (stereo unspecified)
172 to 174	CC(C)(C)OC(=O)CCc1nc(C(=O)OC(C)(C)C)ccc1O

melting point [°C]	Structure (SMILES)
120	O=C(O)Cc1ccc(CNC(=O)C2Cc3ccccc3N2S(=O)(=O)c2ccc(-c3cccc(Cl)c3)cc2)cc1 (stereo unspecified)
238 to 240	CC(=O)Nc1cccc(-n2ccnc2C)c1
220 to 221	CSc1nnc2c3ccccc3c(-c3ccccc3)nn12
111 to 112	Cn1ncc2ccccc2c1=O
144 to 145	COc1ccc(N2CCN(C3CN(C4c5c(C)cc(C)c(C)c5OC4(C)C)CCN3c3ccccc3)CC2)cc1 (stereo unspecified)
130 to 134	CCc1cccc(CNC[C@@H](O)[C@H](Cc2cc(F)cc(F)c2)NC(=O)N2CCC(CS(C)(=O)=O)CC2)c1
91 to 93	CNC(=O)c1cnc(Cl)cc1-c1ccccc1C
156	CC1(C)CC(=O)C(C(=O)Nc2ccc(Cl)c(C(F)(F)F)c2)C(=O)O1 (stereo unspecified)
75 to 79	Cn1c(C=O)c(-c2ccc(F)cc2)c2ccccc21
147 to 152	CC(=O)OC1CC(C)(C)N(OC(=NC2CCCCC2)N(C(=O)c2ccccc2)C2CCCCC2)C(C)(C)C1
179	COc1ccc(CNc2nc(-c3ccc(C(=O)O)cc3)nc3c2c2c(n3C(C)c3ccccc3)CCCC2)cc1Cl (stereo unspecified)
48 to 51	Cc1c(-c2ccc(OCc3ccccc3)cc2)n(C(=O)c2ccc(OCCN3CCCCC3)cc2)c2ccc(OCc3ccccc3)cc12
118 to 119	CC(C)Oc1ccc(CCCOc2cc(CCC(=O)O)n(-c3ccccc3)n2)c(OCc2ccc(C(F)(F)F)cc2)c1
85 to 86	COC(=O)c1ccc(O)c(C(=O)CC(=O)c2cc(C)ccc2OC(C)C)c1
68 to 70	COC(=O)CCc1ccc(Nc2ccccc2[N+](=O)[O-])cc1
143 to 145	O=C(O)c1cc(OCc2ccccc2)cc(C(F)(F)F)c1
68 to 70	COc1ccccc1N1CCN(CCNC(=O)CCN2CCC(c3c[nH]c4cc(F)ccc34)CC2)CC1
120 to 121	CC(=O)N1CCN(C(C)c2ccc(-c3ccc(Cl)cc3)cc2)CC1 (stereo unspecified)
128 to 131	COc1ccc(C#Cc2ccncc2)c2c1OC1(CCCC1)C2
204 to 205	Cn1nnc(-c2ccc3c(c2)S(=O)(=O)c2ccccc2C3=O)n1
118 to 120	CCOC(=O)c1c(C)cc2c(c1C)C(=O)OC2(C)O (stereo unspecified)
125 to 127	Cc1cc(C(=O)N(C2CCCCC2)C2CCCC2)ccc1Br
150 to 152	CNC(=O)N1CCC(c2nn(-c3ccc(C(F)(F)F)cc3)c3ccccc23)CC1
90 to 91	CC1CN(C)Cc2cc(-c3ccccc3)n(Cc3ccccc3)c21 (stereo unspecified)
133 to 135	CCOC(=O)CC[C@H](NC(=O)c1ccc(C(CO)CC2CNc3nc(NC(=O)C(C)(C)C)nc(O)c3C2)cc1)C(=O)OCC (stereo partly specified)
197 to 199	CC(=O)NC[C@H]1CN(c2ccc(-c3ncon3)c(F)c2)C(=O)O1
